The test system of one data set is S. aureus ATCC 33592. The class given is cell-based, Staphylococcus aureus. The method, then:
(§1) The antimicrobial activity of the PHNX peptides (China Peptides custom synthesis) and LL-37 (AnaSpec 61302) against bacteria was determined as previously described ([Barksdale et al., 2016], [2017]). Briefly, 1 × 10^5 CFU per well of bacteria were incubated with different peptide concentrations (n = 3) in a 50-μl solution of 10 mM sodium phosphate buffer (3 h, 37°C). Serial dilutions were then prepared in 1X Dulbecco’s PBS and 8 μl of each dilution was spotted in triplicate on Tryptic Soy Agar plates, which were incubated (37°C, 24 h) and CFUs were counted ([Barksdale et al., 2016], [2017]). Bacterial survival at each peptide concentration was calculated based on the ratio of the number of colonies on each experimental plate and the average number of colonies observed for assay cultures lacking peptide. The peptide concentration required to kill 50% of the viable bacteria in the assay cultures (EC50) was determined by plotting percent survival as a function of the log of peptide concentration (log μg/ml) and fitting the data using GraphPad Prism 6 (GraphPad Software Inc., San Diego, CA, United States). For the purpose of graphing, samples that had no peptide (0 μg/ml) are plotted at 1 × 10^–7 μg/ml peptide. EC50 values were determined by fitting the data from the antimicrobial assays to a standard sigmoidal dose–response curve. […] Wells containing only 10 mM sodium phosphate buffer were used as sterility control.

In data set [1] the test system is E. coli ATCC 51659 (MDR, O157:H7). Conditions: Mueller Hinton Broth; for Minimum inhibitory concentration (MIC): MDR strain, CLSI broth microdilution, 5 × 10^4 CFU/well, OD600, <10% of untreated control = clear, n = 3; for Minimum inhibitory concentration (MIC) / Antibacterial screening: growth inhibition / bactericidal activity: 16–20 h, 37°C; for Antibacterial screening: growth inhibition / bactericidal activity: 5 × 10^5 CFU/mL, OD600, n = 3. (In general: Dilution methods test growth across graded concentrations, often in twofold steps.)

The subject of the next data set is E. coli ATCC 51659. The class given is cell-based, Escherichia coli. As to the method: as §1
Data set [2] concerns E. coli ATCC 4157 (antibiotic susceptible). To be noted: Mueller Hinton Broth; for Minimum inhibitory concentration (MIC): antibiotic susceptible strain, CLSI broth microdilution, 5 × 10^4 CFU/well, OD600, n = 3.
A further data set concerns human red blood cells. The experiment in a line: Hemolysis assay. The class given is cell-based. To be noted: 2% human RBCs (K2EDTA blood) in PBS, 1 h, 37°C.
For data set [3], the system named is S. aureus ATCC 33592 (MDR, MRSA). Conditions: Mueller Hinton Broth, 16–20 h, 37°C; for Minimum inhibitory concentration (MIC): MDR (MRSA) strain, CLSI broth microdilution, 5 × 10^4 CFU/well, OD600, n = 3; for Antibacterial screening: growth inhibition / bactericidal activity: peptide 100 μg/ml, 5 × 10^5 CFU/mL, OD600, n = 3.
The subject of data set [4] is S. aureus ATCC BAA-1718 (antibiotic susceptible). Conditions: antibiotic susceptible strain; CLSI broth microdilution, Mueller Hinton Broth, 5 × 10^4 CFU/well, 16–20 h, 37°C, OD600; n = 3.
Setting [5] is: same EC50 presented in micromolar units, 10 mM sodium phosphate buffer, 3 h, 37°C, read-out: EC50.
Setting [6] is: peptide 100 μg/ml, OD540, DI water = full lysis, n = 3.

In brackets after ≈: the same amount, converted by molar mass. Read-outs that look alike come from different tables or passages of the source. No end group written: not given here.

Usually EC50 stands for the midpoint of the concentration-response curve.

In the case of “GLMDTVKNAAKNLAGQLLD KIKCKITG (disulfide) [PHNX-8]”, in the data set with S. aureus ATCC 33592 (low salt: 10 mM sodium phosphate buffer, 1 × 10^5 CFU per well, 3 h, 37°C, CFU counting, sigmoidal fit, n = 3), the “Half maximal effective concentration (EC50)” value came out at 3.31 µg/mL. The EC50 came out at 1.12 µM with S. aureus ATCC 33592 (setting [5]) and 20 nM in the data set with E. coli ATCC 51659 (setting [5]). For the same molecule, the “Minimum inhibitory concentration (MIC)” value in data set [1] was 64 µg/mL; in data set [2] (16–20 h, 37°C) it was 32 µg/mL. In addition, the “Antibacterial screening: growth inhibition / bactericidal activity” value in data set [1] (peptide 100 μg/ml) is “showed activity”; in data set [2] (peptide 100 μg/ml, 5 × 10^5 CFU/mL, 16–20 h, 37°C, OD600, n = 3) it was “showed activity”. Moreover, the “Antibacterial screening: bacterial survival” value in data set [1] (peptide 100 μg/ml, Figure 3C) was approximately 0%; in data set [2] (peptide 100 μg/ml, Figure 3A), approximately 0%.

Turning to FLLKLGLGKKKLL [PHNX-4], the EC50 in the data set with S. aureus ATCC 33592 (ATCC 33592, 3 h) amounted to 3.29 µM; with E. coli ATCC 51659 (ATCC 51659, 3 h), 1980 nM. Also, the “Half maximal effective concentration (EC50)” value in the data set on E. coli ATCC 51659 (ATCC 51659, 3 h) is not above 10 µg/mL.

The molecule GVVDIIKGAGKKFAKGLAGKIANKK [PHNX-7] had an EC50 in the data set on S. aureus ATCC 33592 (ATCC 33592, 3 h) of 0.83 µM. Further, in the data set with E. coli ATCC 51659 (ATCC 51659, 3 h), the EC50 worked out at 20 nM and the “Half maximal effective concentration (EC50)” value is not above 10 µg/mL.

Regarding `CC[C@H](C)[C@H](NC(=O)[C@H](CCCCN)NC(=O)[C@H](CCC(=O)O)NC(=O)[C@H](CCCCN)NC(=O)[C@H](CO)NC(=O)[C@H](CCCCN)NC(=O)[C@H](CCCNC(=N)N)NC(=O)[C@H](Cc1ccccc1)NC(=O)[C@H](Cc1ccccc1)NC(=O)[C@H](CC(=O)O)NC(=O)CNC(=O)[C@H](CC(C)C)NC(=O)[C@@H](N)CC(C)C)C(=O)NCC(=O)N[C@@H](CCCCN)C(=O)N[C@@H](CCC(=O)O)C(=O)N[C@@H](Cc1ccccc1)C(=O)N[C@@H](CCCCN)C(=O)N[C@@H](CCCNC(=N)N)C(=O)N[C@H](C(=O)N[C@H](C(=O)N[C@@H](CCC(N)=O)C(=O)N[C@@H](CCCNC(=N)N)C(=O)N[C@H](C(=O)N[C@@H](CCCCN)C(=O)N[C@@H](CC(=O)O)C(=O)N[C@@H](Cc1ccccc1)C(=O)N[C@@H](CC(C)C)C(=O)N[C@@H](CCCNC(=N)N)C(=O)N[C@@H](CC(N)=O)C(=O)N[C@@H](CC(C)C)C(=O)N[C@H](C(=O)N1CCC[C@H]1C(=O)N[C@@H](CCCNC(=N)N)C(=O)N[C@H](C(=O)N[C@@H](CCC(=O)O)C(=O)N[C@@H](CO)C(=O)O)[C@@H](C)O)C(C)C)[C@@H](C)CC)C(C)C)[C@@H](C)CC` [LL-37], the “Minimum inhibitory concentration (MIC)” value in data set [1] amounted to 32 µg/mL (≈ 7.12 µM). Further, the Hemolysis entry is “negligible hemolysis” in the data set on human red blood cells (peptide 1 μg/ml, OD540, n = 3) and “approximately 40%” in the data set with human red blood cells (setting [6]).

On to FLIKILKGGKGGK [PHNX-5], for which the EC50 in the data set with S. aureus ATCC 33592 (ATCC 33592, 3 h) is more than 7.36 µM. Also, the “Minimum inhibitory concentration (MIC)” value in data set [1] was more than 100 µg/mL. In the data set with E. coli ATCC 51659 (ATCC 51659, 3 h), the EC50 came to 3640 nM and the “Half maximal effective concentration (EC50)” value was not above 10 µg/mL.

Regarding FGKLLKLGKGLKG [PHNX-3], the EC50 in the data set on S. aureus ATCC 33592 (setting [5]) is more than 7.34 µM. Also, in data set [1], the “Minimum inhibitory concentration (MIC)” value is more than 100 µg/mL. Moreover, the “Half maximal effective concentration (EC50)” value in the data set with E. coli ATCC 51659 (ATCC 51659, 3 h) was more than 10 µg/mL.

For the molecule FLLKIVALLKKKLL [PHNX-1], the EC50 stood at 0.14 µM in the data set with S. aureus ATCC 33592 (ATCC 33592, 3 h) and 80 nM in the data set on E. coli ATCC 51659 (ATCC 51659, 3 h). Moreover, the “Half maximal effective concentration (EC50)” value in the data set on E. coli ATCC 51659 (ATCC 51659, 3 h) was not above 10 µg/mL.

For the molecule “KRFKKFFRKLKKSVKKRAKEFFKKPRVIGVSIPF [BF-CATH, reference compound]”, the “Minimum inhibitory concentration (MIC)” value in data set [1] is 8 µg/mL; in data set [3], 64 µg/mL; in data set [2] (16–20 h, 37°C), 4 µg/mL. In addition, the “Antibacterial screening: growth inhibition / bactericidal activity” value in data set [1] (peptide 100 μg/ml) and in data set [3] was 100% in each case.

Turning to FGKLLKLGKGLGG [PHNX-2], the EC50 was more than 7.78 µM with S. aureus ATCC 33592 (setting [5]) and more than 7780 nM with E. coli ATCC 51659 (ATCC 51659, 3 h). Moreover, the “Minimum inhibitory concentration (MIC)” value in data set [1] was more than 100 µg/mL.

For “VRLIVAVRIWRR-NH2 (C-terminus assumed) [IDR-1018]”, the “Minimum inhibitory concentration (MIC)” value in data set [1], in data set [3] and in data set [4] was approximately 16 µg/mL each time. For the same molecule, the “Antibacterial screening: growth inhibition / bactericidal activity” value in data set [1] (peptide 100 μg/ml) and in data set [3] was 100% in each case. Further, the Hemolysis entry was “negligible hemolysis” with human red blood cells (peptide 1 μg/ml, OD540, n = 3); approximately 10% with human red blood cells (peptide 10 μg/ml, OD540, n = 3); “approximately 40%” in the data set on human red blood cells (setting [6]).

Turning to FIGAIASYLKKFR [PHNX-6], the EC50 was 5.24 µM in the data set with S. aureus ATCC 33592 (ATCC 33592, 3 h) and 1720 nM in the data set on E. coli ATCC 51659 (ATCC 51659, 3 h). Moreover, the “Minimum inhibitory concentration (MIC)” value in data set [1] is more than 100 µg/mL. Besides, the “Half maximal effective concentration (EC50)” value in the data set with E. coli ATCC 51659 (ATCC 51659, 3 h) is not above 10 µg/mL.

Values taken from PMC8636942, “Ab initio Designed Antimicrobial Peptides Against Gram-Negative Bacteria” (Frontiers in Microbiology, 2021).
